The experiment deals with T1, histamine H3 receptor (Homo sapiens, UniProt Q9Y5N1).
T1 construct: expressed in transfected cells; host or cells: CHO K1 cells carrying the pSwitch regulatory plasmid, transfected with pGeneH3 and induced with mifepristone; clone 3H3; membrane preparation
The experiment in a line: Histamine H3 functional antagonist assay ([35S]-GTPγS SPA, membranes from cultured H3 cells). Format: biochemical. The conditions noted are these: hydrochloride salts tested; averages of a number of experiments; membrane prepared from cultured H3 cells; read-out: functional pKi (fpKi), histamine H3 functional antagonist assay (converted). An excerpt: A membrane preparation containing histamine H3 receptors may be prepared in accordance with the following procedures:
DNA encoding the human histamine H3 gene (Huvar, A. et al. (1999) Mol. Pharmacol. 55(6), 1101-1107) was cloned into a holding vector, pcDNA3.1 TOPO (InVitrogen) and its cDNA was isolated from this vector by restriction digestion of plasmid DNA with the enzymes BamH1 and Not-1 and ligated into the inducible expression vector pGene (InVitrogen) digested with the same enzymes. The GeneSwitch™ system (a system where in transgene expression is switched off in the absence of an inducer and switched on in the presence of an inducer) was performed as described in U.S. Pat. Nos. 5,364,791; 5,874,534; and 5,935,934. Ligated DNA was transformed into competent DH5α E. coli host bacterial cells and plated onto Luria Broth (LB) agar containing Zeocin™ (an antibiotic which allows the selection of cells expressing the sh ble gene which is present on pGene and pSwitch) at 50 μg ml^−1. Colonies containing the re-ligated plasmid were identified by restriction analysis. DNA for transfection into mammalian cells was prepared from 250 ml cultures of the host bacterium containing the pGeneH3 plasmid and isolated using a DNA preparation kit (Qiagen Midi-Prep) as per manufacturers guidelines (Qiagen).
CHO K1 cells previously transfected with the pSwitch regulatory plasmid (InVitrogen) were seeded at 2×10e6 cells per T75 flask in Complete Medium, containing Hams F12 (GIBCOBRL, Life Technologies) medium supplemented with 10% v/v dialysed foetal bovine serum, L-glutamine, and hygromycin (100 μg ml^−1), 24 hours prior to use. Plasmid DNA was transfected into the cells using Lipofectamine plus according to the manufacturers guidelines (InVitrogen). 48 hours post transfection cells were placed into complete medium supplemented with 500 μg ml^−1 Zeocin™.
10-14 days post selection 10 nM Mifepristone (InVitrogen), was added to the culture medium to induce the expression of the receptor. 18 hours post induction cells were detached from the flask using ethylenediamine tetra-acetic acid (EDTA; 1:5000; InVitrogen), following several washes with phosphate buffered saline pH 7.4 and resuspended in Sorting Medium containing Minimum Essential Medium (MEM), without phenol red, and supplemented with Earles salts and 3% Foetal Clone II (Hyclone). Approximately 1×10e7 cells were examined for receptor expression by staining with a rabbit polyclonal antibody, 4a, raised against the N-terminal domain of the histamine H3 receptor, incubated on ice for 60 minutes, followed by two washes in sorting medium. Receptor bound antibody was detected by incubation of the cells for 60 minutes on ice with a goat anti rabbit antibody, conjugated with Alexa 488 fluorescence marker (Molecular Probes). Following two further washes with Sorting Medium, cells were filtered through a 50 μm Filcon™ (BD Biosciences) and then analysed on a FACS Vantage SE Flow Cytometer fitted with an Automatic Cell Deposition Unit. Control cells were non-induced cells treated in a similar manner. Positively stained cells were sorted as single cells into 96-well plates, containing Complete Medium containing 500 μg ml^−1 Zeocin™ and allowed to expand before reanalysis for receptor expression via antibody and ligand binding studies. One clone, 3H3, was selected for membrane preparation.
All steps of the protocol are carried out at 4° C. and with pre-cooled reagents. […]

Each structure is given as a SMILES string. Where only a bound is given, the exact number is not on record here.

T1 sequence (Q9Y5N1 whole entry): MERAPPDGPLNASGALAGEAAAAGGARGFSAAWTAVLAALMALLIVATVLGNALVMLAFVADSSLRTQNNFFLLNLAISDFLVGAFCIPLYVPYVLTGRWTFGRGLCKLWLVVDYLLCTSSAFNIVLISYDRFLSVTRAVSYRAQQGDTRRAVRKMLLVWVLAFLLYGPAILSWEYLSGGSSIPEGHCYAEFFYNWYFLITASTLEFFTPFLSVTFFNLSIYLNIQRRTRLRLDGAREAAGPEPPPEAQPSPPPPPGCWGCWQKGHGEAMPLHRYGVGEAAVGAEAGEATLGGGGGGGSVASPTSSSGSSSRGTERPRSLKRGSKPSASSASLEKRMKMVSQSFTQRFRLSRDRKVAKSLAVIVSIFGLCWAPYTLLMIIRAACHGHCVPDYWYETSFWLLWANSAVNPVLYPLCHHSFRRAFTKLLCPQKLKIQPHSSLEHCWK

As for `O=C1CCCN1c1ccc(Oc2ccc3c(c2)CC(N2CCCC2)C3)nc1` (racemic) [Example 3, 1-(6-{[2-(1-Pyrrolidinyl)-2,3-dihydro-1H-inden-5-yl]oxy}-3-pyridinyl)-2-pyrrolidinone], the Ki was < 1 nM.
As for `CNC(=O)c1ccc(Oc2ccc3c(c2)CC(N2CCCC2)C3)nc1` (single isomer, unassigned; (-)) [Example 22, (−)-Enantiomer N-methyl-6-{[2-(1-pyrrolidinyl)-2,3-dihydro-1H-inden-5-yl]oxy}-3-pyridinecarboxamide], the Ki was < 1 nM.
In the case of `O=C1CCCN1c1ccc(Oc2ccc3c(c2)CC(N2CCCC2)C3)nc1` (single isomer, unassigned; enantiomer 1) [Example 4, (−)-Enantiomer 1-(6-{[2-(1-Pyrrolidinyl)-2,3-dihydro-1H-inden-5-yl]oxy}-3-pyridinyl)-2-pyrrolidinone], the Ki is < 1 nM.
For the compound `O=C(c1ccc(Oc2ccc3c(c2)CC(N2CCCC2)C3)nc1)N1CCCC1` (centres unmarked) [Example 12, 5-(1-Pyrrolidinylcarbonyl)-2-{[2-(1-pyrrolidinyl)-2,3-dihydro-1H-inden-5-yl]oxy}pyridine], the Ki was < 1 nM.
Take `C[C@H]1CCCN1C1Cc2ccc(Oc3ccc(N4CCCC4=O)cn3)cc2C1` (stereo partly drawn) [Example 20, 1-[6-({2-[(2S)-2-Methyl-1-pyrrolidinyl]-2,3-dihydro-1H-inden-5-yl}oxy)-3-pyridinyl]-2-pyrrolidinone]: the Ki was < 1 nM.
